Laboratory results from ChEMBL document CHEMBL4118221, “Vinyldiaminotriazine-acridine conjugate as G-quadruplex alkylating agent” (Bioorg Med Chem, 2018).
pKd: −log10 of the molar value. Each block holds one compound with its values, some of them ahead of it. Activity calls are given as the source filed them. No cut-off for these calls is given here.

Tests used:
Quadruplex DNA [1] = assay: Effect on conformation of human telomeric G-quadruplex DNA in K+ buffer by circular dichroism spectral analysis; type: nucleic-acid assay
[2] = Solubility of the compound in water; type: physicochemical; details: buffer
Quadruplex DNA [3] = assay: Alkylating activity at 5'-FAM-labeled human telomeric G-quadruplex DNA in K+ buffer at 100 uM measured up to 72 hrs by PAGE analysis; type: functional
Quadruplex DNA [4] = assay: Alkylating activity at 14G base of human telomeric G-quadruplex DNA in K+ buffer at 100 uM using 9-mer primer after 72 hrs by primer extension method; type: functional
Quadruplex DNA [5] = assay: Alkylating activity at 12T base of human telomeric G-quadruplex DNA in K+ buffer at 100 uM using 9-mer primer after 72 hrs by primer extension method; type: functional
Quadruplex DNA [6] = assay: Alkylating activity at 14G base of human telomeric G-quadruplex DNA in Na+ buffer at 100 uM using 9-mer primer after 72 hrs by primer extension method; type: functional
dsDNA = assay: Alkylating activity at 5'-FAM-labeled T-A full-matched duplex DNA (unknown origin) in MES buffer at 100 uM measured up to 72 hrs by PAGE analysis; type: functional
Quadruplex DNA [7] = assay: Alkylating activity at 25T base of human telomeric G-quadruplex DNA in Na+ buffer at 100 uM using 9-mer primer after 72 hrs by primer extension method; type: functional
Quadruplex DNA [8] = assay: Alkylating activity at 18T base of human telomeric G-quadruplex DNA in Na+ buffer at 100 uM using 9-mer primer after 72 hrs by primer extension method; type: functional
[9] = Alkylating activity at 5'-FAM-labeled T-T mismatched duplex DNA (unknown origin) in MES buffer at 100 uM measured up to 72 hrs by PAGE analysis; type: functional
Quadruplex DNA [10] = assay: Alkylating activity at 12T base of human telomeric G-quadruplex DNA in Na+ buffer at 100 uM using 9-mer primer after 72 hrs by primer extension method; type: functional
Quadruplex DNA [11] = assay: Alkylating activity at human telomeric G-quadruplex DNA in Na+ buffer assessed as thermal stabilization by measuring change in melting temperature at 1.5 uM by circular dichroism spectral analysis; type: functional
Quadruplex DNA [12] = assay: Alkylating activity at 19T base of human telomeric G-quadruplex DNA in K+ buffer at 100 uM using 9-mer primer after 72 hrs by primer extension method; type: functional
Quadruplex DNA [13] = assay: Alkylating activity at human telomeric G-quadruplex DNA in K+ buffer assessed as thermal stabilization by measuring change in melting temperature at 1.5 uM by circular dichroism spectral analysis; type: functional
Quadruplex DNA [14] = assay: Alkylating activity at T base of human telomeric G-quadruplex DNA in K+ buffer assessed as thymidine-compound adduct formation at 100 uM using 9-mer primer after 72 hrs by alkaline phosphatase and phosphodiesterase-1 enzymatic hydrolysis assay based ESI-MS analysis; type: functional
Quadruplex DNA [15] = assay: Alkylating activity at 13T base of human telomeric G-quadruplex DNA in Na+ buffer at 100 uM using 9-mer primer after 72 hrs by primer extension method; type: functional
Quadruplex DNA [16] = assay: Effect on conformation of human telomeric G-quadruplex DNA in Na+ buffer by circular dichroism spectral analysis; type: nucleic-acid assay
Quadruplex DNA [17] = assay: Alkylating activity at T bases of human telomeric G-quadruplex DNA in Na+ buffer at 100 uM using 11-mer primer after 72 hrs by primer extension method; type: functional
Quadruplex DNA [18] = assay: Alkylating activity at 24T base of human telomeric G-quadruplex DNA in Na+ buffer at 100 uM using 9-mer primer after 72 hrs by primer extension method; type: functional
Quadruplex DNA [19] = assay: Alkylating activity at T bases of human telomeric G-quadruplex DNA in K+ buffer at 100 uM using 11-mer primer after 72 hrs by primer extension method; type: functional
Quadruplex DNA [20] = assay: Alkylating activity at 18T base of human telomeric G-quadruplex DNA in K+ buffer at 100 uM using 9-mer primer after 72 hrs by primer extension method; type: functional
Quadruplex DNA [21] = assay: Alkylating activity at 19T base of human telomeric G-quadruplex DNA in Na+ buffer at 100 uM using 9-mer primer after 72 hrs by primer extension method; type: functional
Quadruplex DNA [22] = assay: Alkylating activity at 5'-FAM-labeled human telomeric G-quadruplex DNA at 100 uM in Na+ buffer measured up to 72 hrs by PAGE analysis; type: functional
Quadruplex DNA [23] = assay: Alkylating activity at 13T base of human telomeric G-quadruplex DNA in K+ buffer at 100 uM using 9-mer primer after 72 hrs by primer extension method; type: functional
[24] = Binding affinity to T-T mismatched duplex DNA (unknown origin) in MES buffer at 0.2 uM after 15 mins by spectrofluorometric method
Quadruplex DNA [25] = assay: Binding affinity to human telomeric G-quadruplex DNA in Na+ buffer at 0.2 uM after 15 mins by spectrofluorometric method; type: nucleic-acid assay
Quadruplex DNA [26] = assay: Binding affinity to human telomeric G-quadruplex DNA in K+ buffer at 0.2 uM after 15 mins by spectrofluorometric method; type: nucleic-acid assay
Quadruplex DNA [27] = assay: Binding affinity to human telomeric G-quadruplex DNA in K+ buffer at 9.4 uM by UV-vis titration analysis; type: nucleic-acid assay
Quadruplex DNA [28] = assay: Binding affinity to human telomeric G-quadruplex DNA in Na+ buffer at 9.4 uM UV-vis titration analysis; type: nucleic-acid assay
[29] = Binding affinity to T-T mismatched duplex DNA (unknown origin) by isothermal calorimetric titration method

Activity (Quadruplex DNA [1]): inactive | solubility [2]: Soluble | Activity (Quadruplex DNA [14]): Active | Activity (Quadruplex DNA [16]): inactive
Compound: C=Cc1nc(N)nc(NCCCCNc2c3ccc(Cl)cc3nc3ccc(OC)cc23)n1
Activity (Quadruplex DNA [3]): Active | Activity (Quadruplex DNA [4]): Active | Activity (Quadruplex DNA [5]): Active | Activity (Quadruplex DNA [6]): Active | Activity (dsDNA): inactive | Activity (Quadruplex DNA [7]): Active | Activity (Quadruplex DNA [8]): Active | Activity [9]: Active | Activity (Quadruplex DNA [10]): Active | ΔTm (Quadruplex DNA [11]): 5.4 °C | Activity (Quadruplex DNA [12]): Active | ΔTm (Quadruplex DNA [13]): 12.7 °C | Activity (Quadruplex DNA [15]): Active | Activity (Quadruplex DNA [17]): Active | Activity (Quadruplex DNA [18]): Active | Activity (Quadruplex DNA [19]): Active | Activity (Quadruplex DNA [20]): Active | Activity (Quadruplex DNA [21]): Active | Activity (Quadruplex DNA [22]): Active | Activity (Quadruplex DNA [23]): Active

solubility [2]: Soluble
Compound: C=Cc1nc(N)nc(NCCCCNc2c3ccccc3nc3c(C(=O)NCCCN(C)C)cccc23)n1
Activity (Quadruplex DNA [3]): Active | Activity (dsDNA): inactive | Activity [9]: inactive | Activity (Quadruplex DNA [22]): Active

pKd [24]: 5.89 | Activity (Quadruplex DNA [25]): inactive | pKd (Quadruplex DNA [26]): 6.21 | pKd (Quadruplex DNA [27]): 5.71 | pKd (Quadruplex DNA [28]): 5.66
Compound: COc1ccc2nc3cc(Cl)ccc3c(NCCCCNc3nc(N)nc(CCSC)n3)c2c1

solubility [2]: Soluble
Compound: C=Cc1nc(N)nc(NCCCCNc2c3ccccc3nc3c(C(=O)NCCCN(C)CCCNC(C)=O)cccc23)n1
Activity (Quadruplex DNA [3]): Active | Activity (dsDNA): inactive | Activity [9]: inactive | Activity (Quadruplex DNA [22]): Active

pKd [24]: 6.19 | Activity (Quadruplex DNA [25]): inactive | pKd (Quadruplex DNA [26]): 6.36
Compound: CSCCc1nc(N)nc(NCCCCNc2c3ccccc3nc3c(C(=O)NCCCN(C)C)cccc23)n1

pKd [29]: 6.29
Compound: COc1ccc2nc3cc(Cl)ccc3c(NCCCCNc3nc(N)nc(N)n3)c2c1
